Measured values: ChEMBL document CHEMBL1909046, “DrugMatrix in vitro pharmacology data”

Tests used:
[1] = biological target: T1, Cysteinyl leukotriene receptor 1 (Homo sapiens, UniProt Q9Y271); type: cell membranes, CHO-K1, Membrane; conditions: cho-k1; note: in other assays of this panel Not Active means under 50% inhibition at 10 µM
T1 sequence (Q9Y271 whole entry): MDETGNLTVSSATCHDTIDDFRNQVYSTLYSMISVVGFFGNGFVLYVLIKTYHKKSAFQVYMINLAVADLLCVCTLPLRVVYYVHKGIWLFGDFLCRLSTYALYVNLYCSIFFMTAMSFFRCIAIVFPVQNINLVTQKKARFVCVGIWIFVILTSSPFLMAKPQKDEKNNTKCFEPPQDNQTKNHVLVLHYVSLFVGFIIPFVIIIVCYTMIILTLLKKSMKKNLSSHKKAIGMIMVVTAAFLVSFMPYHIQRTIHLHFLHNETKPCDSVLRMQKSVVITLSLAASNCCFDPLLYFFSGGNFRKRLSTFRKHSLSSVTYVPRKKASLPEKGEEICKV

[2] = DRUGMATRIX: Potassium Channel [KATP] radioligand binding (ligand: [3H] Glyburide); type: cell membranes, Membrane; conditions: hit-t15; Not Active = under 50% inhibition at 10 µM
[3] = biological target: Estrogen receptor beta (Homo sapiens, UniProt Q92731); conditions: sf9; note: in other assays of this panel Not Active means under 50% inhibition at 10 µM
Sequence of Estrogen receptor beta (Q92731 whole entry): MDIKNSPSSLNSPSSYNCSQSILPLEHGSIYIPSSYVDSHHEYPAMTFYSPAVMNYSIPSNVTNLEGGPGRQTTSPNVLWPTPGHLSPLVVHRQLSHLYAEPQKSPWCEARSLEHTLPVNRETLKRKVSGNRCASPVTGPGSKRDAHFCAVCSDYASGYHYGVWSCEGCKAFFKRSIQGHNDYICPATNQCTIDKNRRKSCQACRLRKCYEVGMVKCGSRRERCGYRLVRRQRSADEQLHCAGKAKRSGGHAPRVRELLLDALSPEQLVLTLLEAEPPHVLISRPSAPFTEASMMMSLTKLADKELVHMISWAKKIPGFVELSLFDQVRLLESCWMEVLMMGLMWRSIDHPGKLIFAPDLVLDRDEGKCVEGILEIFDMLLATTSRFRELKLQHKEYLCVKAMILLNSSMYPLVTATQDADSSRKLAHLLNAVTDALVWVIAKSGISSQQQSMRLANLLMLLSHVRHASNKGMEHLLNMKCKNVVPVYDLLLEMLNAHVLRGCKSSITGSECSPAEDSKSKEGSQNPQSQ

[4] = DRUGMATRIX: Phosphodiesterase PDE3 enzyme inhibition (substrate: [3H]cAMP + cAMP); type: tissue-based, Homo sapiens; conditions: platelet; Not Active = under 50% inhibition at 10 µM
[5] = biological target: Protein phosphatase 3 catalytic subunit alpha (Homo sapiens, UniProt Q08209); set-up: species or system Escherichia coli;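 note: inhibition of calcineurin (PP2B) enzyme activity, measured with DiFMUP as the substrate; in other assays of this panel Not Active means under 50% inhibition at 10 µM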
[6] = biological target: 5-hydroxytryptamine receptor 4 (Cavia porcellus, UniProt O70528); type: cell membranes, Dunkin-Hartley, Striatum, Membrane; note: in other assays of this panel Not Active means under 50% inhibition at 10 µM
Sequence of 5-hydroxytryptamine receptor 4 (O70528 whole entry): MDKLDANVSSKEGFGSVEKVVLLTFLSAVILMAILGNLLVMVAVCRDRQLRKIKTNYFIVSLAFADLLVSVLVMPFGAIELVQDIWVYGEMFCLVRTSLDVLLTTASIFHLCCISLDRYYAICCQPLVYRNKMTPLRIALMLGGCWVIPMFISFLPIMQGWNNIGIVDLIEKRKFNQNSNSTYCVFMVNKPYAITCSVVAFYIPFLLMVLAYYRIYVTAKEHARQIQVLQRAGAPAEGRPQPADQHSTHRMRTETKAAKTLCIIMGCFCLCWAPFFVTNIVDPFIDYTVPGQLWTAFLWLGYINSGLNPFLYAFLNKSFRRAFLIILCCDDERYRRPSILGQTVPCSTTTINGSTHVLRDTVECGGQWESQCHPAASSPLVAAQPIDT

[7] = biological target: T2, Caspase-1 (Homo sapiens, UniProt P29466); set-up: species or system Escherichia coli
T2 sequence (P29466 whole entry): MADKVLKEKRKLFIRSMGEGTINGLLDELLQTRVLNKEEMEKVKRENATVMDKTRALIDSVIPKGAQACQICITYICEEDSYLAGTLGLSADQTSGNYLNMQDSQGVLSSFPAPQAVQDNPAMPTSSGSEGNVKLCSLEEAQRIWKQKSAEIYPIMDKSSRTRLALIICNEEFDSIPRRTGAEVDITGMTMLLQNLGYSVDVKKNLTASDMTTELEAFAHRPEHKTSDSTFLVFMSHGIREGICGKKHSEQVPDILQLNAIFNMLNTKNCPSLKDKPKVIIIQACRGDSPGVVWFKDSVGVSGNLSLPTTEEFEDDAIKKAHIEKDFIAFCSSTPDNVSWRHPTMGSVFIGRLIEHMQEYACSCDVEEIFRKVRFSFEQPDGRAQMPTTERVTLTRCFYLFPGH

[8] = DRUGMATRIX: Atrial Natriuretic Factor (ANF) radioligand binding (ligand: [125I] ANF (rat)); type: cell membranes, Cavia porcellus, Dunkin-Hartley, Adrenal gland, Membrane; conditions: Not Active = under 50% inhibition at 10 µM
[9] = biological target: Adenosine receptor A2a (Homo sapiens, UniProt P29274); experiment: DRUGMATRIX: Adenosine A2A radioligand binding (ligand: […]); type: cell membranes, HEK293, Membrane; conditions: hek293; Not Active = under 50% inhibition at 10 µM
Sequence of Adenosine receptor A2a (P29274 whole entry): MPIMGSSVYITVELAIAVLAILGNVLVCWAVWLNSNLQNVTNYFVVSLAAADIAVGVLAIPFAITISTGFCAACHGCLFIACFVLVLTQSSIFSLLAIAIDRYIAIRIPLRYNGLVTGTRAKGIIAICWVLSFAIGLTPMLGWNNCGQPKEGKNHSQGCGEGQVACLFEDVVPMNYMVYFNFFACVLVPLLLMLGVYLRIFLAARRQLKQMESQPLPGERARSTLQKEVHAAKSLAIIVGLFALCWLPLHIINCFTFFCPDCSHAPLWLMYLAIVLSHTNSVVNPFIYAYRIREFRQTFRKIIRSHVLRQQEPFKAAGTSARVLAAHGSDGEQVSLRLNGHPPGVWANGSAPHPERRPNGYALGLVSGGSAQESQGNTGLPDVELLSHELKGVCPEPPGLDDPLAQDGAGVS

[10] = biological target: T3, C-X-C chemokine receptor type 1 (Homo sapiens, UniProt P25024); note: in other assays of this panel Not Active means under 50% inhibition at 10 µM
T3 sequence (P25024 whole entry): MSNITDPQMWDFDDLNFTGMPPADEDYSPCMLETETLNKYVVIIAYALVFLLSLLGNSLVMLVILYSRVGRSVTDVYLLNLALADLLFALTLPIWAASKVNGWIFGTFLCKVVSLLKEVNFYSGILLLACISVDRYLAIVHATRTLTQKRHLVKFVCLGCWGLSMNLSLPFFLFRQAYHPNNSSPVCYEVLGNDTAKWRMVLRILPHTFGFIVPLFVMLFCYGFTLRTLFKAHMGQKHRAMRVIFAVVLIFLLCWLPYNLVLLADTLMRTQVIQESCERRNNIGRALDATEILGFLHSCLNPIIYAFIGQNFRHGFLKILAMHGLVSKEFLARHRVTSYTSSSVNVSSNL

[11] = biological target: Tyrosine-protein kinase Lck (Homo sapiens, UniProt P06239); experiment: DRUGMATRIX: Protein Tyrosine Kinase, LCK enzyme inhibition (substrate: Poly(Glu:Tyr)); type: cell-based, Insect cells; conditions: insect cells; Not Active = under 50% inhibition at 10 µM
Sequence of Tyrosine-protein kinase Lck (P06239 whole entry): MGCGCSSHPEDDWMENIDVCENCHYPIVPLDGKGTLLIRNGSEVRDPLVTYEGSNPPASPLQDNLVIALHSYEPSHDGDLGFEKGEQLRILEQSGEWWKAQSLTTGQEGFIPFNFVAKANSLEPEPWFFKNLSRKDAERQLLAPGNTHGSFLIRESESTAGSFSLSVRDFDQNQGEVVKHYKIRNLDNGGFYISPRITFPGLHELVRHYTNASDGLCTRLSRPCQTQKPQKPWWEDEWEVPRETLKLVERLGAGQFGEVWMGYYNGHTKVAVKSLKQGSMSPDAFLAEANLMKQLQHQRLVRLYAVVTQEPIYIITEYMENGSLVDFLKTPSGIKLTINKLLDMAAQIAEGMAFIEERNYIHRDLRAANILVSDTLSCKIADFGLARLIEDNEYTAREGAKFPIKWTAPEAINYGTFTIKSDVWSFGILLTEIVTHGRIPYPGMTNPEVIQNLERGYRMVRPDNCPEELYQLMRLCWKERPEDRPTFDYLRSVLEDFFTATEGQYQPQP

[12] = DRUGMATRIX: Leukotriene, BLT (LTB4) radioligand binding (ligand: [3H]LTB4); type: cell membranes, Membrane; conditions: u-937; Not Active = under 50% inhibition at 10 µM
[13] = biological target: Nitric oxide synthase 1 (Rattus norvegicus, UniProt P29476); type: tissue-based, Cerebellum; note: in other assays of this panel Not Active means under 50% inhibition at 10 µM
Sequence of Nitric oxide synthase 1 (P29476 whole entry): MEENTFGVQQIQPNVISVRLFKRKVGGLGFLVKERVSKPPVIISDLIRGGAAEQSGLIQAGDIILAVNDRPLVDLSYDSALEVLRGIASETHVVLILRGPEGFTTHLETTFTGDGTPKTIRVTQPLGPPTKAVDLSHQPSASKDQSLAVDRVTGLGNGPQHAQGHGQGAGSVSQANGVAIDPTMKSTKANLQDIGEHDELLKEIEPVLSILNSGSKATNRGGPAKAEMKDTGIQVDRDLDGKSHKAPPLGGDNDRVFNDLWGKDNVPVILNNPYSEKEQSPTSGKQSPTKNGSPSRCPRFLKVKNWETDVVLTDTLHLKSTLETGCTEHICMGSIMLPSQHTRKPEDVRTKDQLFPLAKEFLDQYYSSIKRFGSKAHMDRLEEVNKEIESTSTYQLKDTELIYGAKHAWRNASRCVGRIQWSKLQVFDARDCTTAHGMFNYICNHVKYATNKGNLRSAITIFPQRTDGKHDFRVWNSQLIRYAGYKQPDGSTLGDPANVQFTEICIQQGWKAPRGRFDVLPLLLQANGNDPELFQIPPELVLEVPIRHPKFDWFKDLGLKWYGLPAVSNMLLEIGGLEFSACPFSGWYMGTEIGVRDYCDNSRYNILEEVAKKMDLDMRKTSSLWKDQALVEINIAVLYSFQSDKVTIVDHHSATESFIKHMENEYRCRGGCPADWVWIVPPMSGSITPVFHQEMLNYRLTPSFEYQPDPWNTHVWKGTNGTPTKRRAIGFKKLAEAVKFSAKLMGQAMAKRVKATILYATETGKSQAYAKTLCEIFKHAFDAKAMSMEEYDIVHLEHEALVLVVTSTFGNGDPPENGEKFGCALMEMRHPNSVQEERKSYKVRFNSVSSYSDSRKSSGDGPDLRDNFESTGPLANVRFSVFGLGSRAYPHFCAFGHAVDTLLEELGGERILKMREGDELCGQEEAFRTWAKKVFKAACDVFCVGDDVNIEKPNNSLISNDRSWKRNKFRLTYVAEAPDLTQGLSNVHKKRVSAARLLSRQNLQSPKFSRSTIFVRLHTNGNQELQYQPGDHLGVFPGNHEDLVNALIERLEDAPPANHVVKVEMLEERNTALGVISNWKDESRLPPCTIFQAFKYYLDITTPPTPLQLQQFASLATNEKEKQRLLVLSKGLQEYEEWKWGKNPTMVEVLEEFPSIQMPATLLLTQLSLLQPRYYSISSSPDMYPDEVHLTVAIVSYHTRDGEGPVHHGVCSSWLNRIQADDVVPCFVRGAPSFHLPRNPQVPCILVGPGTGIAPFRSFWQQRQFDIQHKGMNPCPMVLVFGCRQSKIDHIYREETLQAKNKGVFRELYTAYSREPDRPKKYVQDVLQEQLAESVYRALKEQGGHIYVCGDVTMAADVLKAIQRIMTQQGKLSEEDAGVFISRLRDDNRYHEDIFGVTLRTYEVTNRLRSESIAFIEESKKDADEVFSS

[14] = biological target: T4, Alpha-2C adrenergic receptor (Homo sapiens, UniProt P18825); experiment: DRUGMATRIX: Adrenergic Alpha-2C radioligand binding (ligand: [3H] MK-912); type: cell membranes, Sf9, Membrane; conditions: sf9
T4 sequence (P18825 whole entry): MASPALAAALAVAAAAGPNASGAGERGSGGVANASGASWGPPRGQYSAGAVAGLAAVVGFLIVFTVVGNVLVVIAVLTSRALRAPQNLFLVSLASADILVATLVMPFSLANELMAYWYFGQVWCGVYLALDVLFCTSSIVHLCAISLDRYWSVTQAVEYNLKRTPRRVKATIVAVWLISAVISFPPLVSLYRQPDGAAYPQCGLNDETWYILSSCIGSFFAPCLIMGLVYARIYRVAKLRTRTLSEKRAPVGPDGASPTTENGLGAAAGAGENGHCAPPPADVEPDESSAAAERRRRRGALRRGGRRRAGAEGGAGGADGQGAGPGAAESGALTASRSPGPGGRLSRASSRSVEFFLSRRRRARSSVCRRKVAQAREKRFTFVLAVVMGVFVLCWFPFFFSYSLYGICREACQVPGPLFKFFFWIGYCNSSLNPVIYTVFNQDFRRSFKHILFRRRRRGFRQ

Nc1nc(=O)[nH]cc1F [FLUCYTOSINE]
Not Active: IC50 [1] | IC50 [2] | Ki [2] | IC50 [3] | IC50 [4] | Ki [4] | IC50 [5] | IC50 [6] | IC50 [7] | IC50 [8] | Ki [8] | IC50 [9] | IC50 [10] | IC50 [11] | IC50 [12] | Ki [12] | IC50 [13] | IC50 [14]

O=C1OC2(c3ccc(O)cc3Oc3cc(O)ccc32)c2ccccc21 [FLUORESCEIN]
Not Active: IC50 [1] | IC50 [2] | Ki [2] | IC50 [3] | IC50 [4] | Ki [4] | IC50 [5] | IC50 [6] | IC50 [7] | IC50 [8] | Ki [8] | IC50 [9] | IC50 [10] | IC50 [11] | IC50 [12] | Ki [12] | IC50 [13] | IC50 [14]

CC(=O)[C@@]1(O)CC[C@H]2[C@@H]3C[C@H](C)C4=CC(=O)C=C[C@]4(C)[C@@]3(F)[C@@H](O)C[C@@]21C [FLUOROMETHOLONE]
Not Active: IC50 [1] | IC50 [2] | Ki [2] | IC50 [3] | IC50 [4] | Ki [4] | IC50 [5] | IC50 [6] | IC50 [7] | IC50 [8] | Ki [8] | IC50 [9] | IC50 [10] | IC50 [11] | IC50 [12] | Ki [12] | IC50 [13] | IC50 [14]

O=c1[nH]cc(F)c(=O)[nH]1 [FLUOROURACIL]
Not Active: IC50 [1] | IC50 [2] | Ki [2] | IC50 [3] | IC50 [4] | Ki [4] | IC50 [5] | IC50 [6] | IC50 [7] | IC50 [8] | Ki [8] | IC50 [9] | IC50 [10] | IC50 [11] | IC50 [12] | Ki [12] | IC50 [13] | IC50 [14]

O=C1OCCN1/N=C/c1ccc([N+](=O)[O-])o1 [FURAZOLIDONE]
Not Active: IC50 [1] | IC50 [2] | Ki [2] | IC50 [3] | IC50 [4] | Ki [4] | IC50 [5] | IC50 [6] | IC50 [7] | IC50 [8] | Ki [8] | IC50 [9] | IC50 [10] | IC50 [11] | IC50 [12] | Ki [12] | IC50 [13] | IC50 [14]
